Test results reported in patent publication US20260035370A1, “CRYSTAL FORM OF 8-CHLORO-3-PENTYL-3,7-DIHYDRO-1H-PURIN-2,6-DIONE COMPOUND AND PREPARATION METHOD THEREFOR” (Shanton Pharma Pte. Ltd., priority 2023, published 2026).
Blank lines part the entries; values can stand above or below the compound they belong to.

Key:
uric acid = conditions: cited from earlier work
[1] = Thermodynamic stability of crystal forms; type: physicochemical
Procedure: (§1) The dehydration risk of the monohydrate crystal form was also evaluated by using VT-XRPD (variable temperature X-ray powder diffraction) in the present invention. […] The stability of crystal forms I and IV in the solid-state was also studied in the present invention.

[2] = High humidity test (influencing factor stability test); type: physicochemical; conditions: for Change of purities/related substance contents: under high humidity and light exposure (summary of Table 1)
Procedure: (§2) Test samples: crystal form I and crystal form II of the compound of formula (1) were prepared according to the above examples.
(§3) Test conditions for investigating the influencing factors:
(§4) High humidity test: Crystal form I and crystal form II of the compound of formula (1) were laid on a dry and clean watch glass, and kept at 40° C.±2° C., and 75% RH±5% for 10 days. Samples were taken respectively on Day 5 and Day 10. The purity and the related substance content of the compound of formula (1) were determined and compared with those of the sample taken on Day 0.

[3] = Photostability test (influencing factor stability test); type: physicochemical; conditions: illuminance 5000 Lx ± 500 Lx
Procedure: as §2, §3
as §4, with “Photostablity” for “High humidity”, “an illuminance of 5000 Lx±500 Lx in a light box” for “40° C.±2° C., and 75% RH±5%”

[4] = In vivo PK after oral administration in SD rats; conditions: for Half-life (t1/2), comparison in words: SD rats, PO, summary of Table 2; for t1/2: male SD rats, PO 2 mg/kg, plasma, mean ± SD, n = 3
Procedure: Test samples: the compound of represented by formula (1), and crystal forms I and II of the compound of formula (1) were prepared according to Examples 1-3;
The tris (i.e. tris(hydroxymethyl)aminomethane) salt crystal form of the compound 8-chloro-3-pentyl-3,7-dihydro-1H-purine-2,6-dione was prepared with reference to WO2010/068581A1.
Oral administration (PO) of four samples:
The concentrations of the test substances were output using Analyst 1.6.2 from AB Sciex. Parameters such as mean, standard deviation, and variation coefficient were calculated using Microsoft Excel (those directly output by Analyst 1.6.2 were not recalculated). PK parameters were calculated using Pharsight Phoenix 6.2 software (NCA model).

[5] = Hygroscopicity test according to Chinese Pharmacopoeia; type: physicochemical; conditions: for Weight gain due to hygroscopicity: 25±1° C., 80%+2% relative humidity; for Hygroscopicity, summary in words: summary of hygroscopicity test
Procedure: Test Example 3: Hygroscopicity Test (According to Chinese Pharmacopoeia, Guidelines for Drug
Hygroscopicity Testing, at 25±1° C., and 80%+2% Relative Humidity)
An appropriate amount of the sample from the examples was taken for the hygroscopicity test.

[6] = cited from earlier work
[7] = compared with the free acid; cited from earlier work
[8] = Solid-state stability under accelerated conditions, open container; type: physicochemical; conditions: one month
Procedure: as §1

[9] = Kinetic stability in the solid state (long-term storage); type: physicochemical; conditions: stored at 10° C.-30° C. in double-sealed aluminum packaging and plastic self-sealing bags for more than 6 years
Procedure: as §1

[10] = Dehydration risk of monohydrate crystal form by VT-XRPD; type: physicochemical
Procedure: as §1

[11] = Stability of crystal form I in the formulation; type: physicochemical
Procedure: as §1

[12] = Transformation of crystal form on standing under ambient conditions; type: physicochemical; conditions: 25-30° C., 70-85% RH, about 10 hours
[13] = 40° C. ± 2° C./75% ± 5% RH, Day 5
[14] = 40° C. ± 2° C./75% ± 5% RH, Day 10
[15] = Day 0, sample before exposure (baseline for both tests)

Compound: CCCCCn1c(=O)[nH]c(=O)c2[nH]c(Cl)nc21 [Formula (1), 8-chloro-3-pentyl-3,7-dihydro-1H-purine-2,6-dione]
- Uric acid-lowering effect (uric acid): good uric acid-lowering effect

Compound: CCCCCn1c(=O)[nH]c(=O)c2[nH]c(Cl)nc21 [Crystal form III, 8-chloro-3-pentyl-3,7-dihydro-1H-purine-2,6-dione]
- Thermodynamic stability for pharmaceutical applications [1]: suboptimal

Compound: CCCCCn1c(=O)[nH]c(=O)c2[nH]c(Cl)nc21 [Crystal form II, 8-chloro-3-pentyl-3,7-dihydro-1H-purine-2,6-dione]
- Purity [2, 13]: 99.7%
- Related substance [2, 13]: 0.31%
- Purity [2, 14]: 99.7%
- Related substance [2, 14]: 0.32%
- Purity [2, 15]: 99.7%
- Related substance [2, 15]: 0.32%
- Change of purities/related substance contents [2]: changed very little
- Purity ([3]; Day 5): 99.7%
- Related substance ([3]; Day 5): 0.31%
- Purity ([3]; Day 10): 99.7%
- Related substance ([3]; Day 10): 0.32%
- Half-life (t1/2), comparison in words [4]: longer half-lifes
- t1/2 ([4]; 2 mg/kg): 4.26 ± 0.61 h
- Weight gain due to hygroscopicity [5]: <0.2%
- Hygroscopicity, summary in words [5]: extremely low hygroscopicity
- Thermodynamic stability for pharmaceutical applications [1]: advantageous

Compound: CCCCCn1c(=O)[nH]c(=O)c2[nH]c(Cl)nc21.NC(CO)(CO)CO [tris salt crystal form, 8-chloro-3-pentyl-3,7-dihydro-1H-purine-2,6-dione tris(hydroxymethyl)aminomethane salt]
- t1/2 [4]: 2.38 ± 0.17 h
- Solubility compared with the free acid [6]: higher solubility
- Cmax [7]: increased Cmax
- Tmax [7]: decreased Tmax

Compound: CCCCCn1c(=O)[nH]c(=O)c2[nH]c(Cl)nc21 [Solid product of Example 1, 8-chloro-3-pentyl-3,7-dihydro-1H-purine-2,6-dione monohydrate, reference compound]
- t1/2 ([4]; monohydrate, 2 mg/kg): 2.32 ± 0.09 h

Now from value to compound:

- Crystal form transformation after storage ([8]; 25° C./92.5% RH): transformed into crystal form I
- Crystal form transformation after storage ([8]; 40° C./75% RH): transformed into crystal form I
Compound: CCCCCn1c(=O)[nH]c(=O)c2[nH]c(Cl)nc21 [Crystal form IV, 8-chloro-3-pentyl-3,7-dihydro-1H-purine-2,6-dione]

- Purity [2, 13]: 99.5%
- Related substance [2, 13]: 0.46%
- Purity [2, 14]: 99.6%
- Related substance [2, 14]: 0.42%
- Purity [2, 15]: 99.6%
- Related substance [2, 15]: 0.45%
- Change of purities/related substance contents [2]: changed very little
- Purity ([3]; Day 5): 99.6%
- Related substance ([3]; Day 5): 0.44%
- Purity ([3]; Day 10): 99.5%
- Related substance ([3]; Day 10): 0.46%
- Half-life (t1/2), comparison in words [4]: longer half-lifes
- t1/2 ([4]; 2 mg/kg): 5.28 ± 1.10 h
- Weight gain due to hygroscopicity [5]: <0.2%
- Hygroscopicity, summary in words [5]: extremely low hygroscopicity
- Crystal form after long-term storage [9]: remained unchanged
- Dehydration risk [10]: very low
- Content of crystal form III in the formulation ([11]; formulation stored at 25° C./60% RH for 9 months): below LOD
- Content of crystal form III in the formulation ([11]; formulation stored at 40° C./75% RH for 6 months): below LOD
- Crystal form transformation after storage ([8]; 25° C./92.5% RH): did not transform
- Crystal form transformation after storage ([8]; 40° C./75% RH): did not transform
- Thermodynamic stability for pharmaceutical applications [1]: advantageous
Compound: CCCCCn1c(=O)[nH]c(=O)c2[nH]c(Cl)nc21 [Crystal form I, 8-chloro-3-pentyl-3,7-dihydro-1H-purine-2,6-dione]

- Crystal form transformation under ambient conditions [12]: transform into crystal form IV
Compound: CCCCCn1c(=O)[nH]c(=O)c2[nH]c(Cl)nc21 [Crystal form V, 8-chloro-3-pentyl-3,7-dihydro-1H-purine-2,6-dione]
